Eight compounds from patent US20120121591A1 (priority 2009, published 2012) can be followed below.

Structures are written as SMILES.

Common to all, as to format: cell-based
In assay [1] the target is hKv1.3 (Homo sapiens, UniProt P22001). Description: cell-based. As to conditions: Kv1.3 (IWQ) IC50 (nM, Avg).
Assay [2] relates to IFN-g secretion from T cells in human whole blood. The following applies: read-out: WB (IFNg) IC50 (nM, Avg).
The subject of assay [3] is IL-2 secretion from T cells in human whole blood. As to conditions: read-out: WB (IL-2) IC50 (nM, Avg).

hKv1.3, sequence (P22001 whole entry): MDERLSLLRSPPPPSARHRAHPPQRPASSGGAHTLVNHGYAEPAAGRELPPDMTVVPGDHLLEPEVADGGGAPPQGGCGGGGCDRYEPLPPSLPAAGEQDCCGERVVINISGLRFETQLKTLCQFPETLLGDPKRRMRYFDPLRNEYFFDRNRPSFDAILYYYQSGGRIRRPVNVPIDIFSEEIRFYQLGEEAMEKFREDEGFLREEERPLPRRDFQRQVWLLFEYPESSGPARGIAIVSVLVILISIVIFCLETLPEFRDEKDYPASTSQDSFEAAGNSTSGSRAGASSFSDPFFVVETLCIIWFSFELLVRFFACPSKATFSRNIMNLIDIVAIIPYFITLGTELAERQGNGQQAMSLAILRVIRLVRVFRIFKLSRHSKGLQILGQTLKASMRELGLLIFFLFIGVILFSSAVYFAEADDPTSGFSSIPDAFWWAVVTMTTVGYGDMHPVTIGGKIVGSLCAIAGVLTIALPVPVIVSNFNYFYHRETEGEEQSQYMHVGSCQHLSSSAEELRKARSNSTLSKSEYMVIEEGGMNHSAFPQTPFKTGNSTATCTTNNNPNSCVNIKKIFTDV

By IC50 is commonly meant the concentration needed to halve the response being measured. As to `CC[C@H](C)[C@@H]1NC(=O)[C@@H](NC(=O)[C@H](CO)NC(=O)[C@@H](N)Cc2cccc3ccccc23)CSSC[C@@H](C(=O)O)NC(=O)[C@H]([C@@H](C)O)NC(=O)CNC(=O)[C@@H]2CSSC[C@@H]3NC(=O)[C@H](CCC(N)=O)NC(=O)[C@H](Cc4ccccc4)NC(=O)[C@H](C)NC(=O)[C@H]([C@@H](C)O)NC(=O)[C@H](CSSC[C@H](NC(=O)[C@H](Cc4ccccc4)NC(=O)[C@H](CO)NC(=O)[C@H](CC(C)C)NC(=O)[C@H](CCCNC(=N)N)NC(=O)[C@H](Cc4ccc(O)cc4)NC(=O)[C@H](CCCCN)NC(=O)[C@H](CCSC)NC(=O)[C@H](CO)NC(=O)[C@H](Cc4c[nH]cn4)NC(=O)[C@H](CCCCN)NC3=O)C(=O)N[C@@H](CCCNC(=N)N)C(=O)N[C@@H](CCCCN)C(=O)N[C@@H]([C@@H](C)O)C(=O)N2)NC(=O)[C@H](CCCNC(=N)N)NC(=O)[C@H](CO)NC(=O)[C@H](CCCCN)NC(=O)[C@@H]2CCCN2C(=O)[C@H]([C@@H](C)CC)NC(=O)[C@H]([C@@H](C)O)NC(=O)[C@H](CC(=O)O)NC1=O` [[1-Nal1]ShK], the values for the concentration for half-maximal inhibition (IC50) in assay [1], in assay [2] and in assay [3] were 0.225 nM, 0.247 nM and 0.222 nM, respectively.

With `CC[C@H](C)[C@@H]1NC(=O)[C@@H](NC(=O)[C@H](Cc2cccc3ccccc23)NC(=O)[C@@H](N)CCCNC(=N)N)CSSC[C@@H](C(=O)O)NC(=O)[C@H]([C@@H](C)O)NC(=O)CNC(=O)[C@@H]2CSSC[C@@H]3NC(=O)[C@H](CCC(N)=O)NC(=O)[C@H](Cc4ccccc4)NC(=O)[C@H](C)NC(=O)[C@H]([C@@H](C)O)NC(=O)[C@H](CSSC[C@H](NC(=O)[C@H](Cc4ccccc4)NC(=O)[C@H](CO)NC(=O)[C@H](CC(C)C)NC(=O)[C@H](CCCNC(=N)N)NC(=O)[C@H](Cc4ccc(O)cc4)NC(=O)[C@H](CCCCN)NC(=O)[C@H](CCSC)NC(=O)[C@H](CO)NC(=O)[C@H](Cc4c[nH]cn4)NC(=O)[C@H](CCCCN)NC3=O)C(=O)N[C@@H](CCCNC(=N)N)C(=O)N[C@@H](CCCCN)C(=O)N[C@@H]([C@@H](C)O)C(=O)N2)NC(=O)[C@H](CCCNC(=N)N)NC(=O)[C@H](CO)NC(=O)[C@H](CCCCN)NC(=O)[C@@H]2CCCN2C(=O)[C@H]([C@@H](C)CC)NC(=O)[C@H]([C@@H](C)O)NC(=O)[C@H](CC(=O)O)NC1=O` [[1-Nal2]ShK], the IC50 in assay [1] was found to be 0.25 nM; in assay [2] it was 0.258 nM; in assay [3], 0.223 nM.

Turning to `CC[C@H](C)[C@@H]1NC(=O)[C@H]([C@@H](C)O)NC(=O)[C@H](CC(=O)O)NC(=O)[C@H](Cc2cccc3ccccc23)NC(=O)[C@@H](NC(=O)[C@H](CO)NC(=O)[C@@H](N)CCCNC(=N)N)CSSC[C@@H](C(=O)O)NC(=O)[C@H]([C@@H](C)O)NC(=O)CNC(=O)[C@@H]2CSSC[C@@H]3NC(=O)[C@H](CCC(N)=O)NC(=O)[C@H](Cc4ccccc4)NC(=O)[C@H](C)NC(=O)[C@H]([C@@H](C)O)NC(=O)[C@H](CSSC[C@H](NC(=O)[C@H](Cc4ccccc4)NC(=O)[C@H](CO)NC(=O)[C@H](CC(C)C)NC(=O)[C@H](CCCNC(=N)N)NC(=O)[C@H](Cc4ccc(O)cc4)NC(=O)[C@H](CCCCN)NC(=O)[C@H](CCSC)NC(=O)[C@H](CO)NC(=O)[C@H](Cc4c[nH]cn4)NC(=O)[C@H](CCCCN)NC3=O)C(=O)N[C@@H](CCCNC(=N)N)C(=O)N[C@@H](CCCCN)C(=O)N[C@@H]([C@@H](C)O)C(=O)N2)NC(=O)[C@H](CCCNC(=N)N)NC(=O)[C@H](CO)NC(=O)[C@H](CCCCN)NC(=O)[C@@H]2CCCN2C1=O` [[1-Nal4]ShK], the IC50 was 0.15 nM in assay [1], 0.317 nM in assay [2] and 0.274 nM in assay [3].

Turning to `CC[C@H](C)[C@@H]1NC(=O)[C@@H](NC(=O)[C@H](CO)NC(=O)[C@@H](N)CCCNC(=N)N)CSSC[C@@H](C(=O)O)NC(=O)[C@H]([C@@H](C)O)NC(=O)CNC(=O)[C@@H]2CSSC[C@@H]3NC(=O)[C@H](CCC(N)=O)NC(=O)[C@H](Cc4ccccc4)NC(=O)[C@H](C)NC(=O)[C@H]([C@@H](C)O)NC(=O)[C@H](CSSC[C@H](NC(=O)[C@H](Cc4ccccc4)NC(=O)[C@H](CO)NC(=O)[C@H](CC(C)C)NC(=O)[C@H](CCCNC(=N)N)NC(=O)[C@H](Cc4ccc(O)cc4)NC(=O)[C@H](CCCCN)NC(=O)[C@H](CCSC)NC(=O)[C@H](CO)NC(=O)[C@H](Cc4c[nH]cn4)NC(=O)[C@H](CCCCN)NC3=O)C(=O)N[C@@H](CCCNC(=N)N)C(=O)N[C@@H](CCCCN)C(=O)N[C@@H]([C@@H](C)O)C(=O)N2)NC(=O)[C@H](CCCNC(=N)N)NC(=O)[C@H](CO)NC(=O)[C@H](CCCCN)NC(=O)[C@@H]2CCCN2C(=O)[C@H]([C@@H](C)CC)NC(=O)[C@H]([C@@H](C)O)NC(=O)[C@H](Cc2cccc3ccccc23)NC1=O` [[1-Nal5]ShK], the half-maximal inhibitory concentration (IC50) in assay [1] came out at 3.3 nM; in assay [2] it was 31.9 nM; in assay [3] it was 70.4 nM.

Consider `CC[C@H](C)[C@@H]1NC(=O)[C@@H](NC(=O)[C@H](CO)NC(=O)[C@@H](N)CCCNC(=N)N)CSSC[C@@H](C(=O)O)NC(=O)[C@H]([C@@H](C)O)NC(=O)CNC(=O)[C@@H]2CSSC[C@@H]3NC(=O)[C@H](CCC(N)=O)NC(=O)[C@H](Cc4ccccc4)NC(=O)[C@H](C)NC(=O)[C@H]([C@@H](C)O)NC(=O)[C@H](CSSC[C@H](NC(=O)[C@H](Cc4ccccc4)NC(=O)[C@H](CO)NC(=O)[C@H](CC(C)C)NC(=O)[C@H](CCCNC(=N)N)NC(=O)[C@H](Cc4ccc(O)cc4)NC(=O)[C@H](CCCCN)NC(=O)[C@H](CCSC)NC(=O)[C@H](CO)NC(=O)[C@H](Cc4c[nH]cn4)NC(=O)[C@H](CCCCN)NC3=O)C(=O)N[C@@H](CCCNC(=N)N)C(=O)N[C@@H](CCCCN)C(=O)N[C@@H]([C@@H](C)O)C(=O)N2)NC(=O)[C@H](CCCNC(=N)N)NC(=O)[C@H](CO)NC(=O)[C@H](CCCCN)NC(=O)[C@@H]2CCCN2C(=O)[C@H]([C@@H](C)CC)NC(=O)[C@H](Cc2cccc3ccccc23)NC(=O)[C@H](CC(=O)O)NC1=O` [[1-Nal6]ShK], for which the 50% inhibitory concentration (IC50) in assay [1] was found to be 0.15 nM; in assay [2], 0.962 nM; in assay [3], 0.86 nM.

Take `CC[C@H](C)[C@@H]1NC(=O)[C@@H](NC(=O)[C@H](CO)NC(=O)[C@@H](N)CCCNC(=N)N)CSSC[C@@H](C(=O)O)NC(=O)[C@H]([C@@H](C)O)NC(=O)CNC(=O)[C@@H]2CSSC[C@@H]3NC(=O)[C@H](CCC(N)=O)NC(=O)[C@H](Cc4ccccc4)NC(=O)[C@H](C)NC(=O)[C@H]([C@@H](C)O)NC(=O)[C@H](CSSC[C@H](NC(=O)[C@H](Cc4ccccc4)NC(=O)[C@H](CO)NC(=O)[C@H](CC(C)C)NC(=O)[C@H](CCCNC(=N)N)NC(=O)[C@H](Cc4ccc(O)cc4)NC(=O)[C@H](CCCCN)NC(=O)[C@H](CCSC)NC(=O)[C@H](CO)NC(=O)[C@H](Cc4c[nH]cn4)NC(=O)[C@H](CCCCN)NC3=O)C(=O)N[C@@H](CCCNC(=N)N)C(=O)N[C@@H](CCCCN)C(=O)N[C@@H]([C@@H](C)O)C(=O)N2)NC(=O)[C@H](CCCNC(=N)N)NC(=O)[C@H](CO)NC(=O)[C@H](CCCCN)NC(=O)[C@@H]2CCCN2C(=O)[C@H](Cc2cccc3ccccc23)NC(=O)[C@H]([C@@H](C)O)NC(=O)[C@H](CC(=O)O)NC1=O` [[1-Nal7]ShK]: the IC50 in assay [1] was determined as 0.699 nM; in assay [2] it was 18 nM; in assay [3], 11.6 nM.

Regarding `CC[C@H](C)[C@@H]1NC(=O)[C@@H](NC(=O)[C@H](CO)NC(=O)[C@@H](N)CCCNC(=N)N)CSSC[C@@H](C(=O)O)NC(=O)[C@H]([C@@H](C)O)NC(=O)CNC(=O)[C@@H]2CSSC[C@@H]3NC(=O)[C@H](CCC(N)=O)NC(=O)[C@H](Cc4ccccc4)NC(=O)[C@H](C)NC(=O)[C@H]([C@@H](C)O)NC(=O)[C@H](CSSC[C@H](NC(=O)[C@H](Cc4ccccc4)NC(=O)[C@H](CO)NC(=O)[C@H](CC(C)C)NC(=O)[C@H](CCCNC(=N)N)NC(=O)[C@H](Cc4ccc(O)cc4)NC(=O)[C@H](CCCCN)NC(=O)[C@H](CCSC)NC(=O)[C@H](CO)NC(=O)[C@H](Cc4c[nH]cn4)NC(=O)[C@H](CCCCN)NC3=O)C(=O)N[C@@H](CCCNC(=N)N)C(=O)N[C@@H](CCCCN)C(=O)N[C@@H]([C@@H](C)O)C(=O)N2)NC(=O)[C@H](CCCNC(=N)N)NC(=O)[C@H](Cc2cccc3ccccc23)NC(=O)[C@H](CCCCN)NC(=O)[C@@H]2CCCN2C(=O)[C@H]([C@@H](C)CC)NC(=O)[C@H]([C@@H](C)O)NC(=O)[C@H](CC(=O)O)NC1=O` [[1-Nal10]ShK], the IC50 in assay [1] turned out to be 0.206 nM; in assay [2] it was 0.255 nM; in assay [3], 0.205 nM.

As to `CC[C@H](C)[C@@H]1NC(=O)[C@@H](NC(=O)[C@H](CO)NC(=O)[C@@H](N)CCCNC(=N)N)CSSC[C@@H](C(=O)O)NC(=O)[C@H]([C@@H](C)O)NC(=O)CNC(=O)[C@@H]2CSSC[C@@H]3NC(=O)[C@H](CCC(N)=O)NC(=O)[C@H](Cc4ccccc4)NC(=O)[C@H](C)NC(=O)[C@H]([C@@H](C)O)NC(=O)[C@H](CSSC[C@H](NC(=O)[C@H](Cc4ccccc4)NC(=O)[C@H](CO)NC(=O)[C@H](CC(C)C)NC(=O)[C@H](CCCNC(=N)N)NC(=O)[C@H](Cc4ccc(O)cc4)NC(=O)[C@H](CCCCN)NC(=O)[C@H](CCSC)NC(=O)[C@H](CO)NC(=O)[C@H](Cc4c[nH]cn4)NC(=O)[C@H](CCCCN)NC3=O)C(=O)N[C@@H](CCCNC(=N)N)C(=O)N[C@@H](CCCCN)C(=O)N[C@@H]([C@@H](C)O)C(=O)N2)NC(=O)[C@H](Cc2cccc3ccccc23)NC(=O)[C@H](CO)NC(=O)[C@H](CCCCN)NC(=O)[C@@H]2CCCN2C(=O)[C@H]([C@@H](C)CC)NC(=O)[C@H]([C@@H](C)O)NC(=O)[C@H](CC(=O)O)NC1=O` [[1-Nal11]ShK], the values for the IC50 in assay [1], in assay [2] and in assay [3] were 0.922 nM, 1.65 nM and 1.14 nM, respectively.
